Results: PMC8393492, “Linking the Phytochemicals and the α-Glucosidase and α-Amylase Enzyme Inhibitory Effects of Nigella sativa Seed Extracts” (Foods, 2021)

Experiments:
intestinal α-glucosidase = intestinal α-glucosidase (Rattus norvegicus, UniProt P23739); test: In vitro intestinal α-glucosidase inhibitory assay (sucrose substrate, glucose release); type: biochemical; conditions: for Inhibition Type: Lineweaver–Burk plots, inhibitor 50 µM (acarbose 5 µM); for Vmax: enzyme Vmax in presence of inhibitor 50 µM (acarbose 5 µM), control 14.1 ± 0.7
Experimental: The effect of the N. sativa seed extracts and fractions against intestinal α-glucosidase activity was quantified colorimetrically by monitoring the glucose release from sucrose degradation, according to the protocol described by Ouassou et al.. The assay mixtures contained 100 µL of sucrose (50 Mm), 1000 μL of phosphate- buffer (50 mM; pH = 7.5), and 100 μL of intestinal α-glucosidase enzyme solution (10 IU). […] Then, tubes were incubated at 37 °C in a water bath for 25 min. The mixture was heated at 100 °C for 5 min to stop the enzymatic reaction, and the release of glucose was estimated by the glucose oxidase method using a commercially available auto-kit. The absorbance was measured at 500 nm, and the inhibition percentage was calculated using the below formula:Inhibitory activity percentage = ((Acontrol 500 nm − ATest 500 nm)/Acontrol 500 nm) × 100(1)
The assays were conducted as described above. […] The experiments were repeated three times.

pancreatic α-amylase = target: T1, pancreatic α-amylase (Sus scrofa, UniProt P00690); test: In vitro pancreatic α-amylase inhibitory assay (starch substrate, DNSA); conditions: for Inhibition Type: Lineweaver–Burk plots, inhibitor 50 µM (acarbose 5 µM); for Vmax: enzyme Vmax in presence of inhibitor 50 µM (acarbose 5 µM), control 29.6 ± 0.8
T1 sequence (P00690 16-511): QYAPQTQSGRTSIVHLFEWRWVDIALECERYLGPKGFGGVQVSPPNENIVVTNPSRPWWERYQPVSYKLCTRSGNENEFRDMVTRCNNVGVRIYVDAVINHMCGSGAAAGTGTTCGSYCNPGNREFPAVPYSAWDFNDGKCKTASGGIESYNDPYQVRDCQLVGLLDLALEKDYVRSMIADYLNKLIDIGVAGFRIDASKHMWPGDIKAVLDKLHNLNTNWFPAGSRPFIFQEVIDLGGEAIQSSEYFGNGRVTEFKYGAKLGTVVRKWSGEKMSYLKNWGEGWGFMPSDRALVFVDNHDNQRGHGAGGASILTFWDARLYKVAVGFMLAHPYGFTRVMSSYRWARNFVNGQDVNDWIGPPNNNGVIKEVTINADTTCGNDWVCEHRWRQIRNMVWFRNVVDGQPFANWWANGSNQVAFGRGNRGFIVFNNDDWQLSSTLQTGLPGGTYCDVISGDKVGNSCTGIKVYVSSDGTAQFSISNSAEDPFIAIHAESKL
Experimental: The inhibition of pancreatic α-amylase activity by N. sativa seed extracts and fractions was studied according to the procedure described by Daoudi et al. [29]. […] The mixtures were pre-incubated at 37 °C for 10 min. Then, 200 μL of starch (1% (w/v)) dissolved in phosphate buffer was added to each tube and were incubated for 20 min at 37 °C. To stop the enzymatic reaction 600 μL of DNSA color reagent was added. Hereafter, the tubes were incubated for 8 min at 100 °C, before being put in an ice-cold-water bath for a few minutes. The mixture was diluted by adding 1 mL of distilled water and the absorbance was measured at 540 nm. Inhibition percentage was calculated using the formula bellows:Inhibitory activity percentage= ((AControl 540 nm − ATest 540 nm)/AControl 540 nm) × 100(2)
Lineweaver–Burk double reciprocal representation (plotting 1/velocity vs 1/substrate concentration) was used to assess inhibition mode, and kinetic parameters Km and Vmax were determined using the Michaelis-Menten equation.
Secondary plots were used to establish the inhibition constants Ki (slope of the Lineweaver–Burk double reciprocal representation vs inhibitor concentration and intercept of the Lineweaver–Burk double reciprocal representation vs inhibitor concentration).

[1] = extraction solvent; source not given; cited from earlier work

intestinal α-glucosidase, sequence (P23739 whole entry): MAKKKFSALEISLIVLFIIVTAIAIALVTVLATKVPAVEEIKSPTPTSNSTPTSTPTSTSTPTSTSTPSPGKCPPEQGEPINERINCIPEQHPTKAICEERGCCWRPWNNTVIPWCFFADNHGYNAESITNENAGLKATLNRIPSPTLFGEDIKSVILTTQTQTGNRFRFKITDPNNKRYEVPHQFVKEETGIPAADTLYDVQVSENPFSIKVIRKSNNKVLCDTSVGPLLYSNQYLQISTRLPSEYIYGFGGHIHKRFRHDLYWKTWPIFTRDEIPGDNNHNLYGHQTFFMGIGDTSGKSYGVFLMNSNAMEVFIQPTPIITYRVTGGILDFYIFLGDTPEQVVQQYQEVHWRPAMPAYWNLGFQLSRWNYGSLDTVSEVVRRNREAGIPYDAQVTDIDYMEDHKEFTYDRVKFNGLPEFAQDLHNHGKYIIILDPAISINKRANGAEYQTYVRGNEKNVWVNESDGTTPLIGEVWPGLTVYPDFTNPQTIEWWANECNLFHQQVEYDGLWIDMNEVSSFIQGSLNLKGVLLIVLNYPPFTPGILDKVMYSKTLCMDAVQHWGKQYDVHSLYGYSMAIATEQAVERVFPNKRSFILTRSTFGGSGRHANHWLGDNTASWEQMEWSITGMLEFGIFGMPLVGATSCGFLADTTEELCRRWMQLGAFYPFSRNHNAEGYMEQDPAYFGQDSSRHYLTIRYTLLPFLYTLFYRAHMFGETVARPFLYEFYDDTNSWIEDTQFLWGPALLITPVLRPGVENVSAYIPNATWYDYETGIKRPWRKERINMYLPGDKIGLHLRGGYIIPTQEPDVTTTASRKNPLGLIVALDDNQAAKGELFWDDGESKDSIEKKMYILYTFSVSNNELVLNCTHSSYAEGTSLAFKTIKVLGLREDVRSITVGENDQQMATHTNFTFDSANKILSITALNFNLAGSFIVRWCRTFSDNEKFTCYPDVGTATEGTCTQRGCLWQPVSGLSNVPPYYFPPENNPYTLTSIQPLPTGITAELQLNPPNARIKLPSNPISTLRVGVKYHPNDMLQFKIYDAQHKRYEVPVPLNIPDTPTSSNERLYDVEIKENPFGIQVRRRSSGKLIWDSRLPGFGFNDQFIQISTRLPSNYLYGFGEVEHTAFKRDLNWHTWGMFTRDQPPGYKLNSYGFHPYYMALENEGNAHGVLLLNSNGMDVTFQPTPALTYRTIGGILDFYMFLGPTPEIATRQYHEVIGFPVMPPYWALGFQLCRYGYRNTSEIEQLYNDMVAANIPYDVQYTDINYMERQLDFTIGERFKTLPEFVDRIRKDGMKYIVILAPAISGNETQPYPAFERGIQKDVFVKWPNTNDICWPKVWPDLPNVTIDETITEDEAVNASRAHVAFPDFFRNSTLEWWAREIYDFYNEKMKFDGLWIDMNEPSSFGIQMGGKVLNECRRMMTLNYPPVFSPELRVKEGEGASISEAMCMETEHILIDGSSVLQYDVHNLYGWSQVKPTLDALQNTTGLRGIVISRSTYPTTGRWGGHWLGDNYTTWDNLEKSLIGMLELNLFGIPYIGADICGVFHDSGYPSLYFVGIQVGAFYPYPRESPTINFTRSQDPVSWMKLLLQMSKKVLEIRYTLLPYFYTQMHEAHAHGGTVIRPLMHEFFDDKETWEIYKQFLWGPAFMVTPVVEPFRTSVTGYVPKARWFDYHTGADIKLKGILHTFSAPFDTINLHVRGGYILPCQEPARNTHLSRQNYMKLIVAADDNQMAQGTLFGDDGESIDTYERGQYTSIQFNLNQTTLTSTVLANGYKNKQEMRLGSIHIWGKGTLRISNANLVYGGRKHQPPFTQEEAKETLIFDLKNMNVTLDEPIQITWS

Row | Compound | Inhibition Type (intestinal α-glucosidase) | Vmax (intestinal α-glucosidase) [µM/min] | Inhibition Type (pancreatic α-amylase) | Vmax (pancreatic α-amylase) [µM/min] | other results
1 | Oc1cc(O)c2c(c1)O[C@@H](c1ccc(O)c(O)c1)[C@H](O)C2 [(−)-Catechin, (−)-catechin] | Noncompetitive | 13.1 ± 0.9 |  |  | fractional inhibition concentration (FIC) (intestinal α-glucosidase; mixed with acarbose, FIC = IC50 in combination with acarbose/IC50 alone, synergistic effect): 0.16
2 | C[C@H]1O[C@H](O[C@H]2[C@H](O)[C@@H](O)[C@@H](O[C@H]3[C@H](O)[C@@H](O)C(O)O[C@@H]3CO)O[C@@H]2CO)[C@H](O)[C@@H](O)[C@@H]1N[C@H]1C=C(CO)[C@@H](O)[C@H](O)[C@H]1O (stereo partly shown) [Acarbose, acarbose, reference compound] | Competitive | 23.9 ± 0.5 | Competitive | 53.8 ± 1.1 | inhibition at 50 µM (intestinal α-glucosidase; read-out: Inhibition of intestinal α-glucosidase activity): 89.2 ± 0.5%; Inhibition of pancreatic α-amylase activity (pancreatic α-amylase; positive control at 5 µM (3.22 µg/mL)): 65.6 ± 4.1%
3 | CC(C)=O [Acetone] |  |  |  |  | logP [1]: −0.16
4 | O=c1cc(-c2ccc(O)cc2)oc2cc(O)cc(O)c12 [Apigenin, apigenin] |  |  | Competitive | 90.1 ± 0.7 | fractional inhibition concentration (FIC) (pancreatic α-amylase; combined with acarbose, possible additive effect): 0.74
5 | O=C(O)c1cc(O)c(O)c(O)c1 [Gallic acid, gallic acid] | Noncompetitive | 14.7 ± 1.2 | Competitive | 76.9 ± 1.4 | IC50 (pancreatic α-amylase): 27.8 ± 2.06 µM
6 | CC1=CC(=O)C(C(C)C)=CC1=O [thymoquinone] |  |  |  |  | inhibition of intestinal α-glucosidase (in words) (intestinal α-glucosidase; under the evaluated concentration range (50 µM in kinetics), data not shown): not active
